According to US20230322722A1, “MODULATORS OF MYC FAMILY PROTO-ONCOGENE PROTEIN” (Nalo Therapeutics, priority 2020, published 2023):

Tests used:
MycN protein = biological target: T1, MycN protein (Homo sapiens, UniProt P04198); test: Degradation of MycN protein, Western blot, SKNBE2 cells (Example 160); format: cell-based
T1 construct: either 2×10^6 of L-363 (human leukemia cell line) or SKNBE2 (neuroblastoma cell line) cells; endogenous in cells; host or cells: SKNBE2 / SK-N-BE(2) neuroblastoma cells
T1 sequence (P04198 1-464): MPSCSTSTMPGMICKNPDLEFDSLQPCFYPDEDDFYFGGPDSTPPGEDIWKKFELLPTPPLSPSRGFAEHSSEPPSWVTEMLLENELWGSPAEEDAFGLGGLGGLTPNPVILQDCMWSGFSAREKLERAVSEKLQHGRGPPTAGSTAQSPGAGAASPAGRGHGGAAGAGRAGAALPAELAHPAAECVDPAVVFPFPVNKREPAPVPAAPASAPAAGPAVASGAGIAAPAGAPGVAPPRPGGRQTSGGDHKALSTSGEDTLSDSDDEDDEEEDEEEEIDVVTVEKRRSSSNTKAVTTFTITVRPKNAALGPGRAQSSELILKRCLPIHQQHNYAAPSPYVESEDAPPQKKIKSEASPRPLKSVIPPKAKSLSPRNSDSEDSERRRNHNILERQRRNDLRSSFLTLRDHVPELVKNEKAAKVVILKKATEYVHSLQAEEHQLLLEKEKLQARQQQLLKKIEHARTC
Description: (§1) In a T150 flask was plated either 2×10^6 of L-363 (human leukemia cell line) or SKNBE2 (neuroblastoma cell line) cells in a total of 30 mL containing Roswell Park Memorial Institute (RPMI) 1640 Medium (Thermo Fisher, Cat. #11875-085), 10% Fetal Bovine Serum (FBS, Thermo Fisher: Cat. #10437-028), 1% Penicillin/streptomycin (Thermo Fisher: Cat. #10378016), and 1% Amophotericin B (Thermo Fisher, Cat. #15290026). The cells were split every 72 hours by reseeding the L-363 or SKNBE2 cells, and the passage number was noted. It is noteworthy that cell cultures that were above 40 passages were not used, and most experiments were done with cells of less than 30 passages.
(§2) In a 6-well cell culture plate, a total of 3 mL of either 1×10^6 cells/mL of L-363 or SKNBE2 cells were seeded, resulting in a total of 3×10^6 cells per well. To each well containing 3 mL of either L-363 or SKNBE2 cell line was added 6 uL of MycN modulating compound (1 mM) and the resulting plate was shaken from left to right, and not swirled. After 6 hours, the cells were placed in a 15 mL falcon tube and spun at 500 Gs at 4° C. in a swinging bucket centrifuge. The medium was then carefully removed without disturbing the pellet. The pellet was then washed with 3 mLs of chilled phosphate buffered saline (PBS) and subjected to the spin cycle. PBS was then removed and the pellet was lysed in 200 uL of radioimmunoprecipitation (RIPA) lysis buffer (Thermo Fisher: Cat. #899000) that is supplemented with protease and phosphatase inhibitors (Thermo Fisher: Cat. #A32959). The cell lysate was then subjected to spinning in a centrifuge for 10 minutes at 13000 G at 4° C. The supernatant was then carefully transferred to a fresh eppendorf tube without disturbing the pellet (˜180 uL). The protein concentration of the cell lysate was then determined by using a bicinchoninic acid (BCA assay) according to manufacturer's protocol (Thermo Fisher: Cat. #23227).
(§3) Cell lysate, approximately 25 ug-30 ug, was loaded per well in a 4-20% polyacrylamide gel (Biorad. Cat. #5671094). After running the dye front off of the gel, the gel was transferred to a nitrocellulose membrane (Biorad: Cat. #1704159) using the transblot turbo system (Biorad: Cat. #1704150) according to manufacturer's protocol. After transferring for 30 minutes, the membrane was blocked with 5% BSA for 1 hour at room temperature. The BSA was then washed off and the primary antibody of choice (1:500) was added, and the membrane was incubated with the primary antibody at 4° C. for overnight. The next morning, the primary antibody was removed and the membrane was washed with 1×-TBST for 10 minutes and repeated three more times. Following the last wash, a secondary antibody (Molecular Devices. Cat. #R8209 or R8208) was added at 1:5000 dilution and incubated for 1 hour at room temperature. Following the incubation with the secondary antibody, the membrane was washed with 1×-TBST for 10 minutes and repeated three more times. Following the last wash, the membrane was washed with de-ionized water twice and dried for at least two hours. Once the membrane is completely dry, the Molecular Devices Spectra Max western system was used to observe the bands. The western image was saved and the band density was measured with ImageJ software.

MycC protein = biological target: T2, MycC protein (Homo sapiens, UniProt P01106); test: Degradation of MycC protein, Western blot, L-363 cells (Example 160); format: cell-based; conditions: 6 h
T2 construct: either 2×10^6 of L-363 (human leukemia cell line) or SKNBE2 (neuroblastoma cell line) cells; endogenous in cells; host or cells: L-363 / L363 human leukemia cells
T2 sequence (P01106 whole entry): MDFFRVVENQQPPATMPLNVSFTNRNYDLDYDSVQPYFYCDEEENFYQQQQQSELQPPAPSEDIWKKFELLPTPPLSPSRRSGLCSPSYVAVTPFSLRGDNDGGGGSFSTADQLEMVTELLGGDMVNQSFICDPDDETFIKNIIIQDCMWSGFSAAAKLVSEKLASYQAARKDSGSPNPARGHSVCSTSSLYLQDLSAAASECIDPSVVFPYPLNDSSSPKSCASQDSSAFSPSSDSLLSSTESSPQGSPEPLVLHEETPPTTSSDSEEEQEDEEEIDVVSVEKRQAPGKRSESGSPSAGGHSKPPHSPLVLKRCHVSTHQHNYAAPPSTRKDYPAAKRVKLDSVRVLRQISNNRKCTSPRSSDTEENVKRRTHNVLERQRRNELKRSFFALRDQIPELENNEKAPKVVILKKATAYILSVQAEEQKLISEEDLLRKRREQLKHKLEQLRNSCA
Description: as §1, §2, §3

| Structure (SMILES) | inhibition at 2 µM (MycN protein; SKNBE2, 6 h) [%] | inhibition at 2 µM (MycC protein) [%] | inhibition at 2 µM (MycN protein; 6 h) [%] |
| --- | --- | --- | --- |
| CN(c1nccc(Nc2cc(C3CC3)[nH]n2)n1)[C@H]1CC[C@H](NC(=O)N2Cc3cc(F)c(F)cc3C2)CC1 [Compound 12, N-((1R,4R)-4-((4-((5-cyclopropyl-1H-pyrazol-3-yl)amino)pyrimidin-2-yl)(methyl)amino)cyclohexyl)-5,6-difluoroisoindoline-2-carboxamide] | 50 to 79 | 80 to 100 |  |
| CN(c1nccc(Nc2cc(C3CC3)[nH]n2)n1)[C@H]1CC[C@H](NC(=O)N2CCc3cc(F)c(F)cc3C2)CC1 [Compound 13, N-((1R,4R)-4-((4-((5-cyclopropyl-1H-pyrazol-3-yl)amino)pyrimidin-2-yl)(methyl)amino)cyclohexyl)-6,7-difluoro-3,4-dihydroisoquinoline-2(1H)-carboxamide] | 50 to 79 | 80 to 100 |  |
| CN(c1nccc(Nc2cc(C3CC3)[nH]n2)n1)[C@H]1CC[C@H](NC(=O)N2CCn3nc(C(F)(F)F)nc3C2)CC1 [Compound 14, N-((1R,4R)-4-((4-((5-cyclopropyl-1H-pyrazol-3-yl)amino)pyrimidin-2-yl)(methyl)amino)cyclohexyl)-2-(trifluoromethyl)-5,6-dihydro-[1,2,4]triazolo[1,5-a]pyrazine-7(8H)-carboxamide] | 80 to 100 | 80 to 100 |  |
| Cc1cnc(CC(=O)NC2CCC(N(C)c3nccc(Nc4cc(C5CC5)[nH]n4)n3)CC2)cn1 [Compound 108, N-((1R,4R)-4-((4-((5-cyclopropyl-1H-pyrazol-3-yl)amino)pyrimidin-2-yl)(methyl)amino)cyclohexyl)-2-(5-methylpyrazin-2-yl)acetamide] | 50 to 79 | 80 to 100 |  |
| CN(c1cc(C2CC2)[nH]n1)c1ccnc(N(C)[C@H]2CC[C@H](NC(=O)C3CCc4ccccc43)CC2)n1 (stereo partly drawn) [Compound 109, N-((1R,4R)-4-((4-((5-cyclopropyl-1H-pyrazol-3-yl)(methyl)amino)pyrimidin-2-yl)(methyl)amino)cyclohexyl)-2,3-dihydro-1H-indene-1-carboxamide] | < 20 | 50 to 79 |  |
| CN(c1cc(C2CC2)[nH]n1)c1ccnc(N(C)[C@H]2CC[C@H](NC(=O)C3Cc4ccccc4C3)CC2)n1 [Compound 110, N-((1R,4R)-4-((4-((5-cyclopropyl-1H-pyrazol-3-yl)(methyl)amino)pyrimidin-2-yl)(methyl)amino)cyclohexyl)-2,3-dihydro-1H-indene-2-carboxamide] | < 20 | 20 to 49 |  |
| Cn1nc(Nc2ccnc(N(C)[C@H]3CC[C@H](NC(=O)C4Cc5ccccc5C4)CC3)n2)cc1C1CC1 [Compound 111, N-((1R,4R)-4-((4-((5-cyclopropyl-1-methyl-1H-pyrazol-3-yl)amino)pyrimidin-2-yl)(methyl)amino)cyclohexyl)-2,3-dihydro-1H-indene-2-carboxamide] | 20 to 49 | < 20 |  |
| CN(c1nccc(Nc2cc(C3CC3)[nH]n2)n1)[C@H]1CC[C@H](NC(=O)C2CCc3ccccc32)CC1 (stereo partly drawn) [Compound 112, N-((1R,4R)-4-((4-((5-cyclopropyl-1H-pyrazol-3-yl)amino)pyrimidin-2-yl)(methyl)amino)cyclohexyl)-2,3-dihydro-1H-indene-1-carboxamide] | 50 to 79 | 80 to 100 |  |
| CN(c1nccc(Nc2cc(C3CC3)[nH]n2)n1)[C@H]1CC[C@H](NC(=O)Cc2cccc(S(C)(=O)=O)c2)CC1 [Compound 115, N-((1R,4R)-4-((4-((5-cyclopropyl-1H-pyrazol-3-yl)amino)pyrimidin-2-yl)(methyl)amino)cyclohexyl)-2-(3-(methylsulfonyl)phenyl)acetamide] | < 20 | 50 to 79 |  |
| CN(c1nccc(Nc2cc(C3CC3)[nH]n2)n1)[C@H]1CC[C@H](NC(=O)C2(C)CCOCC2)CC1 [Compound 116, N-((1R,4R)-4-((4-((5-cyclopropyl-1H-pyrazol-3-yl)amino)pyrimidin-2-yl)(methyl)amino)cyclohexyl)-4-methyltetrahydro-2H-pyran-4-carboxamide] | < 20 | 80 to 100 |  |
| CN(c1nccc(Nc2cc(C3CC3)[nH]n2)n1)[C@H]1CC[C@H](NC(=O)c2cn3ccccc3n2)CC1 [Compound 117, N-((1R,4R)-4-((4-((5-cyclopropyl-1H-pyrazol-3-yl)amino)pyrimidin-2-yl)(methyl)amino)cyclohexyl)imidazo[1,2-a]pyridine-2-carboxamide] | 80 to 100 | 80 to 100 |  |
| Cn1ncc2cc(C(=O)N[C@H]3CC[C@H](N(C)c4nccc(Nc5cc(C6CC6)[nH]n5)n4)CC3)ccc21 [Compound 118, N-((1R,4R)-4-((4-((5-cyclopropyl-1H-pyrazol-3-yl)amino)pyrimidin-2-yl)(methyl)amino)cyclohexyl)-1-methyl-1H-indazole-5-carboxamide] | 50 to 79 | 80 to 100 |  |
| CN(c1nccc(Nc2cc(C3CC3)[nH]n2)n1)[C@H]1CC[C@H](C(=O)NC2Cc3ccccc3C2)CC1 [Compound 119, (1R,4R)-4-((4-((5-cyclopropyl-1H-pyrazol-3-yl)amino)pyrimidin-2-yl)(methyl)amino)-N-(2,3-dihydro-1H-inden-2-yl)cyclohexane-1-carboxamide] |  | 80 to 100 | 80 to 100 |
| CN(c1nccc(Nc2cc(C3CC3)[nH]n2)n1)[C@H]1CC[C@H](C(=O)NCC2Cc3ccccc3C2)CC1 [Compound 120, (1R,4R)-4-((4-((5-cyclopropyl-1H-pyrazol-3-yl)amino)pyrimidin-2-yl)(methyl)amino)-N-((2,3-dihydro-1H-inden-2-yl)methyl)cyclohexane-1-carboxamide] | 50 to 79 | 80 to 100 |  |
| CN(c1nccc(Nc2cc(C3CC3)[nH]n2)n1)C1CCC(CC(=O)NC2Cc3ccccc3C2)CC1 (stereo not shown) [Compound 121, 2-(4-((4-((5-cyclopropyl-1H-pyrazol-3-yl)amino)pyrimidin-2-yl)(methyl)amino)cyclohexyl)-N-(2,3-dihydro-1H-inden-2-yl)acetamide] |  | 80 to 100 | 80 to 100 |
| Cn1nnc(C(=O)N[C@H]2CC[C@H](N(C)c3nccc(Nc4cc(C5CC5)[nH]n4)n3)CC2)n1 [Compound 122, N-((1R,4R)-4-((4-((5-cyclopropyl-1H-pyrazol-3-yl)amino)pyrimidin-2-yl)(methyl)amino)cyclohexyl)-2-methyl-2H-tetrazole-5-carboxamide] | 50 to 79 | 80 to 100 |  |
| CN(c1nccc(Nc2cc(C3CC3)[nH]n2)n1)[C@H]1CC[C@H](NC(=O)Cc2ccnc(C(F)(F)F)c2)CC1 [Compound 123, N-((1R,4R)-4-((4-((5-cyclopropyl-1H-pyrazol-3-yl)amino)pyrimidin-2-yl)(methyl)amino)cyclohexyl)-2-(2-(trifluoromethyl)pyridin-4-yl)acetamide] | 20 to 49 | 20 to 49 |  |
